Data on 17 compounds can be found in patent US11434234B2, “Methods and agents for treating disease” (ANGION BIOMEDICA CORP., priority 2014, dated 2022).

pIC50: −log10 of the molar value. Bounds are passed on as bounds.

The target in the first test is T1, aldosterone synthase (Homo sapiens, UniProt P19099).
T1 construct: host or cells: H295R human adrenocortical carcinoma cells
T1 sequence (P19099 25-503): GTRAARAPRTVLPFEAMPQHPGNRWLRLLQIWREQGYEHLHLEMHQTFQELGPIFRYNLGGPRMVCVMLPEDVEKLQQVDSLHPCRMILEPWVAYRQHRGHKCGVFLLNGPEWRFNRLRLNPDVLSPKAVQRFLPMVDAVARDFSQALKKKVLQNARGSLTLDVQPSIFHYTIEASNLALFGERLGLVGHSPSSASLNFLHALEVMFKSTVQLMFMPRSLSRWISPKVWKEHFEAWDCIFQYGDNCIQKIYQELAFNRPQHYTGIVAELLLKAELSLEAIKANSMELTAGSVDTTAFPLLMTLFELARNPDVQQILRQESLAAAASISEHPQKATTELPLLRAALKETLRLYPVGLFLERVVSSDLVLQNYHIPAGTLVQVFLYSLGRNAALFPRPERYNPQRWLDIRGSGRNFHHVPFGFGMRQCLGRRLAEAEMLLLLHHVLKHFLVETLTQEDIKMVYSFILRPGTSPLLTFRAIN
Description: Ang-II stimulated aldosterone production in H295R cells (ELISA). The class given is cell-based. As to conditions: Ang-II stimulated.
Description: To test the activity of compounds in a cell-based assay, a well-established assay described in the literature was used [Muller-Vieira U, Angotti M, Hartmann R W. The adrenocortical tumor cell line NCI-H295R as an in vitro screening system for the evaluation of CYP11B2 (aldosterone synthase) and CYP11B1 (steroid-11beta-hydroxylase) inhibitors. […] In brief, human adrenocortical carcinoma cells (H295R; ATCC CRL-2128) were plated in 96-well plates and the effect of compounds on angiotensin-II (Ang-II) stimulated aldosterone production was determined in the supernatant using an ELISA kit (Genway 40-521-475012). […] Compounds were tested in the aldosterone production assay at various concentrations and from dose-response inhibition curves the % inhibition at specific concentrations and the IC50 were calculated.
For the compound `CCOC(=O)c1cncn1[C@H](C)c1ccccc1` [etomidate], the “Ang-II stimulated aldosterone production” value is recorded as “significantly inhibited”.

`CC(=O)N1CCN(c2ccc(OCC3COC(Cn4ccnc4)(c4ccc(Cl)cc4Cl)O3)cc2)CC1` (stereo not shown) [ketoconazole]: the “Ang-II stimulated aldosterone production” value is given as “significantly inhibited”.

Staying with this test, now noted: basal.
In the case of `CCOC(=O)c1cncn1[C@H](C)c1ccccc1` [etomidate], the basal aldosterone production result is given as “significantly inhibited”.

As for `CC(=O)N1CCN(c2ccc(OCC3COC(Cn4ccnc4)(c4ccc(Cl)cc4Cl)O3)cc2)CC1` (stereo not shown) [ketoconazole], the basal aldosterone production entry was “significantly inhibited”.

Another test addresses T2, human CYP11B2 (Homo sapiens, UniProt P19099).
T2 construct: expressed in transfected cells; host or cells: V79 Chinese hamster cells
T2 sequence (P19099 25-503): T1 sequence (P19099 25-503)
The test is described as follows: Aldosterone inhibitory activity in V79 cells expressing human CYP11B2. The test is classed as cell-based. Particulars: V79 Chinese hamster cells stably transfected with human CYP11B2; substrate 11-deoxycorticosterone 100 nM; read-out: IC50, inhibition of the production of aldosterone. The method, then: For the determination of aldosterone inhibitory activity, tests were carried out using V79 Chinese hamster cells stably transfected with human CYP11B2 or CYP11B1 and using assay protocols as described in Ehmer P B, Bureik M, Bernhardt R, Muller U, Hartmann R W. Development of a test system for inhibitors of human aldosterone synthase (CYP11B2): screening in fission yeast and evaluation of selectivity in V79 cells. J. Steroid Biochem. Mol. Biol. 2002 June; 81(2):173-9. The concentration of the substrate 11-deoxycorticosterone in the assay was 100 nM.
Take `CCCC(O)(c1nc2ccc(Oc3ccc(OC(F)(F)F)cc3)cc2s1)c1cnccc1OCC` (stereo not shown) [Example 54, 1-(4-ethoxypyridin-3-yl)-1-(6-(4-(trifluoromethoxy)phenoxy)benzo[d]thiazol-2-yl)butan-1-ol]: the pIC50 was > 6.00.

`CCCC(O)(c1nc2ccc(Oc3ccc(F)cc3)cc2s1)c1cnccc1OCC` (stereo not shown) [Example 55, 1-(4-ethoxypyridin-3-yl)-1-(6-(4-fluorophenoxy)benzo[d]thiazol-2-yl)butan-1-ol]: the pIC50 was > 6.00.

Turning to `CCCC(O)(c1nc2cc(Br)c(OC(F)(F)F)cc2s1)c1cnccc1OCC` (stereo not shown) [Example 56, 1-(5-bromo-6-(trifluoromethoxy)benzo[d]thiazol-2-yl)-1-(4-ethoxypyridin-3-yl)butan-1-ol], the pIC50 is > 6.00.

Turning to `CCCC(O)(c1nc2ccc(OC(F)(F)F)c(Br)c2s1)c1cnccc1OCC` (stereo not shown) [Example 57, 1-(7-bromo-6-(trifluoromethoxy)benzo[d]thiazol-2-yl)-1-(4-ethoxypyridin-3-yl)butan-1-ol], the pIC50 was > 6.00.

As for `CCCC(O)(c1nc2cc(Cl)c(OC(F)(F)F)cc2s1)c1cnccc1OCC` (stereo not shown) [Example 58, 1-(5-chloro-6-(trifluoromethoxy)benzo[d]thiazol-2-yl)-1-(4-ethoxypyridin-3-yl)butan-1-ol], the negative logarithm of the IC50 (pIC50) is > 6.00.

For the compound `CCCC(O)(c1nc2ccc(OC(F)(F)F)c(Cl)c2s1)c1cnccc1OCC` (stereo not shown) [Example 59, 1-(7-chloro-6-(trifluoromethoxy)benzo[d]thiazol-2-yl)-1-(4-ethoxypyridin-3-yl)butan-1-ol], the negative-log IC50 (pIC50) was > 6.00.

On to `CCCC(O)(c1nc2cc(C)c(OC(F)(F)F)cc2s1)c1cnccc1OCC` (stereo not shown) [Example 60, 1-(4-ethoxypyridin-3-yl)-1-(5-methyl-6-(trifluoromethoxy)benzo[d]thiazol-2-yl)butan-1-ol], for which the negative-log IC50 (pIC50) was > 6.00.

In the case of `CCCC(O)(c1nc2ccc(OC(F)(F)F)c(C)c2s1)c1cnccc1OCC` (stereo not shown) [Example 61, 1-(4-ethoxypyridin-3-yl)-1-(7-methyl-6-(trifluoromethoxy)benzo[d]thiazol-2-yl)butan-1-ol], the pIC50 is > 6.00.

On to `CCCC(O)(c1nc2cc(F)c(OC(F)(F)F)cc2s1)c1cnccc1OCC` (stereo not shown) [Example 62, 1-(4-ethoxypyridin-3-yl)-1-(5-fluoro-6-(trifluoromethoxy)benzo[d]thiazol-2-yl)butan-1-ol], for which the pIC50 is > 6.00.

With `CCCOc1ccncc1C(O)(CCC)c1nc2cc(Cl)c(OC(F)(F)F)cc2s1` (stereo not shown) [Example 63, 1-(5-chloro-6-(trifluoromethoxy)benzo[d]thiazol-2-yl)-1-(4-propoxypyridin-3-yl)butan-1-ol], the pIC50 was > 6.00.

As for `CCCOc1ccncc1C(O)(CCC)c1nc2ccc(OC(F)(F)F)c(Cl)c2s1` (stereo not shown) [Example 64, 1-(7-chloro-6-(trifluoromethoxy)benzo[d]thiazol-2-yl)-1-(4-propoxypyridin-3-yl)butan-1-ol], the negative-log IC50 (pIC50) is > 6.00.

On to `CCCC(O)(c1nc2cc(Cl)c(OCC(F)(F)F)cc2s1)c1cnccc1OCC` (stereo not shown) [Example 69, 1-(5-chloro-6-(2,2,2-trifluoroethoxy)benzo[d]thiazol-2-yl)-1-(4-ethoxypyridin-3-yl)butan-1-ol], for which the negative-log IC50 (pIC50) was > 6.00.

Turning to `CCCC(O)(c1nc2ccc(Br)cc2s1)c1cnccc1OC` (stereo not shown) [Example 70, 1-(6-bromobenzo[d]thiazol-2-yl)-1-(4-methoxypyridin-3-yl)butan-1-ol], the negative logarithm of the IC50 (pIC50) was > 6.00.

Consider `CCCC(O)(c1nc2ccc(C#N)cc2s1)c1cnccc1OCC` (stereo not shown) [Example 72, 1-(6-cyanobenzo[d]thiazol-2-yl)-1-(4-ethoxypyridin-3-yl)butan-1-ol], for which the pIC50 is > 6.00.

On to `CCCC(O)(c1nc2ccc(C(N)=O)cc2s1)c1cnccc1OCC` (stereo not shown) [Example 73, 2-(1-(4-ethoxypyridin-3-yl)-1-hydroxybutyl)benzo[d]thiazole-6-carboxamide], for which the pIC50 was > 6.00.
